Source: PubChem BioAssay AID248 (DTP/NCI, 2004)
Several values for one entry are separate records, joined by “and”; a condition that tells them apart may be missing. Equal values may be shown once. Toxic doses and inconclusive results are not listed. Cut-off read from the data, not from the text of the source: active = T/C of 150% or more; inactive = T/C below 125%.

Tested on: L1210 leukemia ip in BDF1 mice, survival T/C
Test: NCI In Vivo Anticancer Drug Screen. Data for tumor model L1210 Leukemia (intraperitoneal) in B6D2F1 (BDF1) mice
Settings: endpoint: mean survival time, higher = longer survival
Method in brief: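 Ratio derived from survival: compound-dosed mice over vehicle-dosed mice, all bearing a transplantable tumor.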

[1] = dose: 100.0 mg/kg/injection, schedule: Q04DX002 (ip), vehicle: Klucel (hydroxypropylcellulose) (HPC)
[2] = dose: 200.0 mg/kg/injection, schedule: Q04DX002 (ip), vehicle: Klucel (hydroxypropylcellulose) (HPC)
[3] = dose: 100.0 mg/kg/injection, schedule: Q04DX003 (ip), vehicle: Klucel (hydroxypropylcellulose) (HPC)
[4] = dose: 200.0 mg/kg/injection, schedule: Q04DX003 (ip), vehicle: Klucel (hydroxypropylcellulose) (HPC)
[5] = dose: 100.0 mg/kg/injection, schedule: Q01DX001 (ip), vehicle: carboxymethylcellulose (CMC)
[6] = dose: 200.0 mg/kg/injection, schedule: Q01DX001 (ip), vehicle: carboxymethylcellulose (CMC)
[7] = dose: 400.0 mg/kg/injection, schedule: Q01DX001 (ip), vehicle: carboxymethylcellulose (CMC)
[8] = dose: 50.0 mg/kg/injection, schedule: Q01DX009 (ip), vehicle: Klucel (hydroxypropylcellulose) (HPC)
[9] = dose: 100.0 mg/kg/injection, schedule: Q01DX009 (ip), vehicle: Klucel (hydroxypropylcellulose) (HPC)
[10] = dose: 200.0 mg/kg/injection, schedule: Q01DX009 (ip), vehicle: Klucel (hydroxypropylcellulose) (HPC)
[11] = dose: 400.0 mg/kg/injection, schedule: Q01DX009 (ip), vehicle: Klucel (hydroxypropylcellulose) (HPC)
[12] = dose: 100.0 mg/kg/injection, schedule: Q04DX003 (ip), vehicle: saline
[13] = dose: 200.0 mg/kg/injection, schedule: Q04DX003 (ip), vehicle: saline
[14] = dose: 400.0 mg/kg/injection, schedule: Q04DX003 (ip), vehicle: saline
[15] = dose: 100.0 mg/kg/injection, schedule: Q01DX009 (ip), vehicle: saline with Tween-80
[16] = dose: 50.0 mg/kg/injection, schedule: Q04DX003 (ip), vehicle: saline

Measured: T/C

C#CCONC(=O)c1ccc(OC)cc1
inactive: dose: 25.0 mg/kg/injection, schedule: Q01DX009 (ip), vehicle: carboxymethylcellulose (CMC) 98 % of control | dose: 50.0 mg/kg/injection, schedule: Q01DX009 (ip), vehicle: carboxymethylcellulose (CMC) 98 % of control | dose: 100.0 mg/kg/injection, schedule: Q01DX009 (ip), vehicle: carboxymethylcellulose (CMC) 96 % of control

CCN(CCCCOC(=O)c1ccc(OC)c(OC)c1)C(C)Cc1ccc(OC)cc1 (stereo not drawn)
inactive: dose: 9.37 mg/kg/injection, schedule: Q01DX009 (ip), vehicle: saline 95 % of control | dose: 18.75 mg/kg/injection, schedule: Q01DX009 (ip), vehicle: saline 87 % of control | dose: 18.75 mg/kg/injection, schedule: Q04DX003 (ip), vehicle: saline 114 % of control | dose: 37.5 mg/kg/injection, schedule: Q01DX009 (ip), vehicle: saline 101 % of control | dose: 37.5 mg/kg/injection, schedule: Q04DX003 (ip), vehicle: saline 100 % of control | dose: 75.0 mg/kg/injection, schedule: Q01DX009 (ip), vehicle: saline 108 % of control | dose: 75.0 mg/kg/injection, schedule: Q04DX003 (ip), vehicle: saline 100 % of control | dose: 150.0 mg/kg/injection, schedule: Q04DX003 (ip), vehicle: saline 105 % of control

CCN(CC)Cc1ccccc1COC(=O)c1cccc(Br)c1
inactive: dose: 50.0 mg/kg/injection, schedule: Q04DX002 (ip), vehicle: Klucel (hydroxypropylcellulose) (HPC) 111 % of control | [1] 118 % of control | [2] 103 % of control

CN(C)C(=O)Sc1ccc(S(=O)(=O)F)cc1Cl
inactive: [3] 101 % of control | [4] 106 % of control | dose: 400.0 mg/kg/injection, schedule: Q04DX003 (ip), vehicle: Klucel (hydroxypropylcellulose) (HPC) 101 % of control

O=c1oc2c(CN3CCOCC3)c(O)ccc2c2c1CCCC2
inactive: [5] 86 % of control | [6] 96 % of control | [7] 91 % of control

CCCCCCCCCCCCCCCCCCNC(=O)Nc1cccc(OC)c1
inactive: dose: 25.0 mg/kg/injection, schedule: Q04DX002 (ip), vehicle: saline with Tween-80 102 % of control | dose: 50.0 mg/kg/injection, schedule: Q04DX002 (ip), vehicle: saline with Tween-80 89 % of control

O=C(CCCN1CC=C(n2c(=O)[nH]c3ccccc32)CC1)c1ccc(F)cc1
inactive: dose: 6.25 mg/kg/injection, schedule: Q01DX009 (ip), vehicle: Klucel (hydroxypropylcellulose) (HPC) 100 % of control | dose: 6.25 mg/kg/injection, schedule: Q04DX003 (ip), vehicle: Klucel (hydroxypropylcellulose) (HPC) 103 % of control | dose: 12.5 mg/kg/injection, schedule: Q01DX009 (ip), vehicle: Klucel (hydroxypropylcellulose) (HPC) 104 % of control | dose: 12.5 mg/kg/injection, schedule: Q04DX003 (ip), vehicle: Klucel (hydroxypropylcellulose) (HPC) 103 % of control | dose: 25.0 mg/kg/injection, schedule: Q01DX009 (ip), vehicle: Klucel (hydroxypropylcellulose) (HPC) 98 % of control | dose: 25.0 mg/kg/injection, schedule: Q04DX003 (ip), vehicle: Klucel (hydroxypropylcellulose) (HPC) 103 % of control | [8] 102 % of control | dose: 50.0 mg/kg/injection, schedule: Q04DX003 (ip), vehicle: Klucel (hydroxypropylcellulose) (HPC) 106 % of control | [9] 94 % of control | [3] 101 % of control and 111 % of control

NC(=S)NNC(=S)S
inactive: [9] 98 % of control | [10] 98 % of control | [11] 109 % of control

CC(C)(C)C(=O)N/N=C\c1ccc([N+](=O)[O-])s1
inactive: [12] 93 % of control | [13] 87 % of control | [14] 94 % of control

Cc1ccc([P+](Cc2ccccc2)(c2ccccc2)c2ccc(C)cc2)cc1
inactive: dose: 15.0 mg/kg/injection, schedule: Q01DX001 (ip), vehicle: saline 96 % of control

O=C(Nc1ccc(F)cc1)OCCOc1ccc([N+](=O)[O-])cc1
inactive: [9] 96 % of control | [10] 107 % of control | [11] 93 % of control

CC(C)=CCN(CC=C(C)C)CCC(O)(Cc1ccccc1)c1ccccc1 (stereo not drawn)
inactive: [8] 88 % of control | [9] 109 % of control | [3] 97 % of control | [10] 90 % of control | [4] 95 % of control

CC1CN=C(c2ccc3ccccc3c2O)S1 (stereo not drawn)
inactive: dose: 100.0 mg/kg/injection, schedule: Q01DX005 (ip), vehicle: saline with Tween-80 90 % of control | [15] 113 % of control | dose: 100.0 mg/kg/injection, schedule: Q04DX002 (ip), vehicle: saline with Tween-80 103 % of control | dose: 200.0 mg/kg/injection, schedule: Q01DX005 (ip), vehicle: saline with Tween-80 90 % of control | dose: 200.0 mg/kg/injection, schedule: Q01DX009 (ip), vehicle: saline with Tween-80 90 % of control | dose: 200.0 mg/kg/injection, schedule: Q04DX002 (ip), vehicle: saline with Tween-80 96 % of control | dose: 400.0 mg/kg/injection, schedule: Q01DX009 (ip), vehicle: saline with Tween-80 94 % of control | dose: 400.0 mg/kg/injection, schedule: Q04DX002 (ip), vehicle: saline with Tween-80 103 % of control

CN=C(Nc1ccccc1C)SC
inactive: [16] 100 % of control | dose: 100.0 mg/kg/injection, schedule: Q01DX001 (ip), vehicle: saline 98 % of control | [12] 100 % of control | dose: 200.0 mg/kg/injection, schedule: Q01DX001 (ip), vehicle: saline 102 % of control | [13] 106 % of control

COc1ccc(OC)c(/C=C/c2cccn[n+]2C)c1
inactive: dose: 50.0 mg/kg/injection, schedule: Q01DX009 (ip), vehicle: saline with Tween-80 101 % of control | [15] 114 % of control

COc1ccccc1NC(=O)N(O)C1(C#N)CCCCC1
inactive: [5] 94 % of control | [6] 93 % of control | [7] 96 % of control

Nc1ccc(O)c2c1C(=O)c1ccccc1C2=O
inactive: [9] 103 % of control | [1] 104 % of control | [10] 92 % of control | [2] 115 % of control | [11] 96 % of control | dose: 400.0 mg/kg/injection, schedule: Q04DX002 (ip), vehicle: Klucel (hydroxypropylcellulose) (HPC) 100 % of control

CCOP(=O)(NN(C)C)OCC
inactive: dose: 12.5 mg/kg/injection, schedule: Q01DX009 (ip), vehicle: saline 107 % of control | dose: 12.5 mg/kg/injection, schedule: Q04DX003 (ip), vehicle: saline 96 % of control | dose: 25.0 mg/kg/injection, schedule: Q01DX009 (ip), vehicle: saline 104 % of control | dose: 25.0 mg/kg/injection, schedule: Q04DX003 (ip), vehicle: saline 104 % of control | dose: 50.0 mg/kg/injection, schedule: Q01DX009 (ip), vehicle: saline 102 % of control | [16] 107 % of control | dose: 100.0 mg/kg/injection, schedule: Q01DX009 (ip), vehicle: saline 102 % of control | [12] 101 % of control | dose: 200.0 mg/kg/injection, schedule: Q01DX009 (ip), vehicle: saline 95 % of control | [13] 106 % of control | dose: 400.0 mg/kg/injection, schedule: Q01DX009 (ip), vehicle: saline 112 % of control | [14] 96 % of control
